In ChEMBL document CHEMBL1156582, “Synthesis and structure-activity relationships of selective norepinephrine reuptake inhibitors (sNRI) with a heterocyclic ring constraint” (Bioorg Med Chem Lett, 2008):

How the values were obtained:
Assay type in all cases: cell-based, HEK293
[1] = target: Sodium-dependent noradrenaline transporter (Homo sapiens, UniProt P23975); experiment: Inhibition of norepinephrine uptake at human NET expressed in HEK cells
[2] = target: Sodium-dependent serotonin transporter (Homo sapiens, UniProt P31645);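 also: test system: HEK cells expressing the human transporter, read-out is block of serotonin uptake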
Chain of Sodium-dependent serotonin transporter (P31645 whole entry): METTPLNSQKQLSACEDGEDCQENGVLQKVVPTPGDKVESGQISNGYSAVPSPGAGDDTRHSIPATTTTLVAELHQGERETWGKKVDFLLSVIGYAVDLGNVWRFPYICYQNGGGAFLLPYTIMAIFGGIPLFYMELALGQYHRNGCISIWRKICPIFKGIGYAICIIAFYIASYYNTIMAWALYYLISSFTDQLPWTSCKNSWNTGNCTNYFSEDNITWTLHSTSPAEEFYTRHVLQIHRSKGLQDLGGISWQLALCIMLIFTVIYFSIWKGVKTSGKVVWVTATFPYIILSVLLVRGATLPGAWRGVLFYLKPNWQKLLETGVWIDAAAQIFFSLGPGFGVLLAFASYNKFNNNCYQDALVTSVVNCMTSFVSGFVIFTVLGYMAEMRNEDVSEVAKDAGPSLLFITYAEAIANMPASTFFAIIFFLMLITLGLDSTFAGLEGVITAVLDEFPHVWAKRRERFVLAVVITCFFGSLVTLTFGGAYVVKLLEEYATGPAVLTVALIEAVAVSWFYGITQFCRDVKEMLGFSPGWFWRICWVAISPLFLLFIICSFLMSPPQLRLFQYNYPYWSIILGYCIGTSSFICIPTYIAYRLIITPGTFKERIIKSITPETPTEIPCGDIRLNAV

[3] = target: Sodium-dependent dopamine transporter (Homo sapiens, UniProt Q01959); experiment: Inhibition of dopamine uptake at human DAT expressed in HEK cells
Chain of Sodium-dependent dopamine transporter (Q01959 whole entry): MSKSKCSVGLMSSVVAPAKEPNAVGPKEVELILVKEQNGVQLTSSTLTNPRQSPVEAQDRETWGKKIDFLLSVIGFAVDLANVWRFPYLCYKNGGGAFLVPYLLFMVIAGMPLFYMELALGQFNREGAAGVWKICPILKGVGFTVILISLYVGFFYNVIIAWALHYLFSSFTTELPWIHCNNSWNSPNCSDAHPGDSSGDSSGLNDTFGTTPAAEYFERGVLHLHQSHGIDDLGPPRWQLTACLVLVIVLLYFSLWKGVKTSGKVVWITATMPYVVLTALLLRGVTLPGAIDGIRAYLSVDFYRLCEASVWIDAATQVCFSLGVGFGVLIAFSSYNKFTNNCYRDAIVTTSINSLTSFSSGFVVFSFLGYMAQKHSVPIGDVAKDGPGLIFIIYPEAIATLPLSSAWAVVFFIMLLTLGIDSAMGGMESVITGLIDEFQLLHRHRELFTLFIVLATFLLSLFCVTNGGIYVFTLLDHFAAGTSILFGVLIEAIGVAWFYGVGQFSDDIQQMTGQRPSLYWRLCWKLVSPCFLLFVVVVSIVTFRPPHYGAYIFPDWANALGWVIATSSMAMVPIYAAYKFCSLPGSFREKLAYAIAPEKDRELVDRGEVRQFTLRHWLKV

Chain of Sodium-dependent noradrenaline transporter (P23975 whole entry): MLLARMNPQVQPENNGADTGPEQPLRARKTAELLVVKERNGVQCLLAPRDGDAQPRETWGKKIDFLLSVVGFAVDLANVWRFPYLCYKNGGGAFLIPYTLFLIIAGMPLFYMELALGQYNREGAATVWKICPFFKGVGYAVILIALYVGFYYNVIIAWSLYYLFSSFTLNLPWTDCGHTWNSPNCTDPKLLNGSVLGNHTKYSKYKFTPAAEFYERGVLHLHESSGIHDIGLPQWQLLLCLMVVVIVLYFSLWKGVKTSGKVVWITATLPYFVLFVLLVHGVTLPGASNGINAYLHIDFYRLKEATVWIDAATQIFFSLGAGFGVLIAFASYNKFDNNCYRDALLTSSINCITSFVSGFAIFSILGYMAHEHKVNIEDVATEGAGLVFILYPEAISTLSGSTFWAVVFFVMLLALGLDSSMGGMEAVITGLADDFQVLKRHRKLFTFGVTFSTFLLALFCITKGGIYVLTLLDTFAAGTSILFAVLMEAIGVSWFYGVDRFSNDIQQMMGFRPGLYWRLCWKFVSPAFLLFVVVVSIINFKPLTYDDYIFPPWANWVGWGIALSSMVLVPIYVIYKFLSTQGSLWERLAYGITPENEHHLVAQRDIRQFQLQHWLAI

Structure (SMILES) | IC50 [1] [µM] | IC50 [2] [µM] | IC50 [3] [µM]
Cc1ccccc1O[C@H]1c2ccccc2OC[C@H]1CN(C)C | 0.7 | 1.1 | > 10
CNC[C@@H]1Cc2ccccc2[C@@H]1Oc1ccccc1C | 0.01 | 1.6 | 5.3
CN(C)C[C@@H]1Cc2ccccc2[C@@H]1Oc1ccc(C(F)(F)F)cc1 | 4.5 | 0.23 | > 10
CNC[C@H]1Cc2ccccc2[C@@H]1Oc1ccccc1C | 0.035 | 1.5 | > 10
CNC[C@@H]1Cc2ccccc2[C@@H]1Oc1ccc(C(F)(F)F)cc1 | 0.88 | 0.19 | > 10
CNC[C@@H]1OCc2ccccc2[C@@H]1Oc1ccc(F)cc1C | 0.013 | 0.15 | > 10
CNC[C@@H]1OCc2ccccc2[C@@H]1Oc1cc(F)ccc1C | 0.011 | 4 | > 10
CNC[C@@H]1CSc2ccccc2[C@@H]1Oc1ccccc1Cl | 0.145 | 3.6 | > 10
CNC[C@@H]1SCc2ccccc2[C@@H]1Oc1ccccc1Cl | 0.14 | 2.7 | > 10
CNC[C@H]1CS(=O)(=O)c2ccccc2[C@@H]1Oc1ccccc1C | 8 | 10 | > 10
Cc1ccccc1O[C@H]1c2ccccc2C[C@H]1CN(C)C | 5 | 6.5 | > 10
CNC[C@H]1CSc2ccccc2[C@@H]1Oc1ccccc1C | 0.43 | 3.1 | 7.5
CNC[C@@H]1Cc2ccccc2[C@@H]1Oc1cccc2ccccc12 | 0.03 | 0.14 | 5.7
CNC[C@H]1Cc2ccccc2[C@@H]1Oc1cccc2ccccc12 | 0.4 | 0.09 | 4

Continued, values first:

IC50 [1] [µM] | IC50 [2] [µM] | IC50 [3] [µM] | Structure (SMILES)
0.24 | > 10 | > 10 | CCOc1ccccc1O[C@H]1c2ccccc2CO[C@@H]1CNC
0.045 | 0.64 | 4 | CNC[C@H]1OCc2ccccc2[C@@H]1Oc1ccccc1SC
0.014 | 6 | > 10 | CNC[C@@H]1OCc2ccccc2[C@@H]1Oc1ccccc1SC
0.009 | 0.1 | 1.4 | CNC[C@@H]1OCc2ccccc2[C@@H]1Oc1cccc(Cl)c1C
0.015 | 4.5 | > 10 | CCc1ccccc1O[C@H]1c2ccccc2CO[C@H]1CNC
0.036 | 3 | > 10 | CCc1ccccc1O[C@H]1c2ccccc2CO[C@@H]1CNC
0.48 | > 10 | > 10 | CNC[C@H]1OCc2ccccc2[C@@H]1Oc1ccccc1OC
0.075 | 3.1 | > 10 | CNC[C@@H]1OCc2ccccc2[C@@H]1Oc1ccccc1F
0.008 | 1.4 | > 10 | CCc1cccc(F)c1O[C@H]1c2ccccc2CO[C@H]1CNC
